For the experiment, the target named is DCN1 protein (Homo sapiens (Human), UniProt Q96GG9). The experiment can be described thus: Intact Protein MS Analysis with the RapidFire-TOF System (covalent adduct formation). The experiment is classed as binding. To be noted: MS Emax; 400 nM DCN1, 3 hours at room temperature. The protocol:
An MS assay was performed to evaluate the ability of the compounds to covalently modify DCN-1.
DCN1 protein, His-TEV-DCN1, were expressed in E. Coli. The His-tagged protein was first purified with an Ni-NTA column. The His-tag was cleaved using His-tag TEV protease and the His-tags were removed using a second Ni-NTA column. Protein purity was verified with SDS-PAGE and intact MS. DCN1 was dissolved in a buffer containing 25 mM Tris-HCl, 200 mM NaCl, and 1 mM DTT at 400 nM. 11 concentrations of compounds were added to the DCN1 solution and incubated at room temperature for 3 hours, unless otherwise specified. The reaction plates were quenched by adding 0.2% formic acid. […] The cartridge was re-equilibrated with loading buffer for 1 second before collection of the next sample. The Q-TOF was operated in TOF-only positive ionization mode set to the following parameters: Gas Temp=350 C, Drying Gas=7 l/min, Nebulizer=50 psi, Sheath Gas Temp=400 C, Sheath Gas Flow=12 l/min, Vcap=4000 V, Nozzle Voltage=1000 V, Fragmentor=125 V, Skimmer=65 V and Oct 1 RF Vpp=750V. Raw MS data files were deconvoluted and analyzed using the Agilent MassHunter Bioconfirm software package to identify both parent protein and expected compound adduct mass signatures.

Sequence of DCN1 protein (Q96GG9 whole entry): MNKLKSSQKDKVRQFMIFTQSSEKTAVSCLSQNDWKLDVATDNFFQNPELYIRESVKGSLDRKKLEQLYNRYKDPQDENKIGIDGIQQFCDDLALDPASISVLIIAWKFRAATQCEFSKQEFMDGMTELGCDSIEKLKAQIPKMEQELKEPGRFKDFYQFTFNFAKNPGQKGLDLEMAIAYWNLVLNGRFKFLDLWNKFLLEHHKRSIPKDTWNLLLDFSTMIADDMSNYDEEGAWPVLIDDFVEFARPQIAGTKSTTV

As for `C#Cc1nn(-c2ccccc2)c2c1[C@H](c1ccc(F)cc1)[C@@H](NC(=O)c1cccc(C(F)(F)F)c1)C(=O)N2CC` (racemic) [Compound I-235, N-((4S,5R)-7-ethyl-3-ethynyl-4-(4-fluorophenyl)-6-oxo-1-phenyl-4,5,6,7-tetrahydro-1H-pyrazolo[3,4-b]pyridine-5-yl)-3-(trifluoromethyl)benzamide], the “% Adduct Formation” value is “+ (MS Emax % adduct formation greater than or equal to 0.0 and less than or equal to 30.0)”. The value for `CCN1C(=O)[C@@H](NC(=O)c2cccc(C(F)(F)F)c2)[C@@H](c2ccc(F)cc2)c2c(CN(C)C(=O)COc3c(F)c(F)cc(F)c3F)nn(-c3ccccc3)c21` (racemic) [Compound I-228] was “+ (MS Emax % adduct formation greater than or equal to 0.0 and less than or equal to 30.0)”; that for `CCN1C(=O)[C@@H](NC(=O)c2cccc(C(F)(F)F)c2)[C@@H](c2ccc(F)cc2)c2c([C@H](C)NC(=O)CCl)nn(-c3ccccc3)c21` (mixture of isomers) [Compound I-175] was “+ (MS Emax % adduct formation greater than or equal to 0.0 and less than or equal to 30.0)”. As for `CC#CC(=O)N[C@H](C)c1nn(-c2ccccc2)c2c1[C@H](c1ccc(F)cc1)[C@H](NC(=O)c1cccc(C(F)(F)F)c1)C(=O)N2CC` (mixture of isomers) [Compound I-209], the “% Adduct Formation” value was “+ (MS Emax % adduct formation greater than or equal to 0.0 and less than or equal to 30.0)”. The value for `CCN1C(=O)[C@@H](NC(=O)c2cccc(C(F)(F)F)c2)[C@@H](c2ccc(F)cc2)c2c([C@@H](C)NC(=O)C3=CCC3)nn(-c3ccccc3)c21` (mixture of isomers) [Compound I-237] was “+ (MS Emax % adduct formation greater than or equal to 0.0 and less than or equal to 30.0)”. The value for `CCN1C(=O)[C@@H](NC(=O)c2cccc(C(F)(F)F)c2)[C@@H](c2ccc(F)cc2)c2c(CNC(=O)/C=C/CN(C)C)nn(-c3ccccc3)c21` (racemic) [Compound I-220] was “+ (MS Emax % adduct formation greater than or equal to 0.0 and less than or equal to 30.0)”; that for `CCN1C(=O)[C@@H](NC(=O)c2cccc(C(F)(F)F)c2)[C@@H](c2ccc(F)cc2)c2c(C(=O)N(C)[C@H](C#N)CCN(C)C)nn(-c3ccccc3)c21` (relative stereo) [Compound I-303, (4S,5S)—N-[(1S*)-1-cyano-3-(dimethylamino)propyl]-7-ethyl-4-(4-fluorophenyl)-N-methyl-6-oxo-1-phenyl-5-[3-(trifluoromethyl)benzamido]-4H,5H-pyrazolo[3,4-b]pyridine-3-carboxamide] was “++ (MS Emax % adduct formation greater than 30.0 and less than or equal to 80.0)”. In the case of `C=CS(=O)(=O)Nc1nn(-c2ccccc2)c2c1[C@H](c1ccc(F)cc1)[C@H](NC(=O)c1cccc(C(F)(F)F)c1)C(=O)N2CC` (racemic) [Compound I-187], the “% Adduct Formation” value is “+++ (MS Emax % adduct formation greater than 80.0 and less than or equal to 100.0)”. With `C=C(C)C(=O)N[C@H](C)c1nn(-c2ccccc2)c2c1[C@H](c1ccc(F)cc1)[C@H](NC(=O)c1cccc(C(F)(F)F)c1)C(=O)N2CC` (mixture of isomers) [Compound I-191], the “% Adduct Formation” value was “+ (MS Emax % adduct formation greater than or equal to 0.0 and less than or equal to 30.0)”. The value for `C=C(CN(C)C)C(=O)N[C@H](C)c1nn(-c2ccccc2)c2c1[C@H](c1ccc(F)cc1)[C@H](NC(=O)c1cccc(C(F)(F)F)c1)C(=O)N2CC` (mixture of isomers) [Compound I-213] was “+++ (MS Emax % adduct formation greater than 80.0 and less than or equal to 100.0)”; that for `CCN1C(=O)[C@@H](NC(=O)c2cccc(C(F)(F)F)c2)[C@@H](c2ccc(F)cc2)c2c(NC(=O)C(F)Cl)nn(-c3ccccc3)c21` (mixture of isomers) [Compound I-120] was “+ (MS Emax % adduct formation greater than or equal to 0.0 and less than or equal to 30.0)”; that for `C/C=C/C(=O)N[C@H](C)c1nn(-c2ccccc2)c2c1[C@H](c1ccc(F)cc1)[C@H](NC(=O)c1cccc(C(F)(F)F)c1)C(=O)N2CC` (mixture of isomers) [Compound I-238] was “+ (MS Emax % adduct formation greater than or equal to 0.0 and less than or equal to 30.0)”. With `CCN1C(=O)[C@@H](NC(=O)c2cccc(C(F)(F)F)c2)[C@@H](c2ccc(F)cc2)c2c(CN3C(=O)C=CC3=O)nn(-c3ccccc3)c21` (racemic) [Compound I-170] the entry was “+ (MS Emax % adduct formation greater than or equal to 0.0 and less than or equal to 30.0)”; with `CCN1C(=O)[C@@H](NC(=O)c2cccc(C(F)(F)F)c2)[C@@H](c2ccc(F)cc2)c2c(CN(C)C(=O)C(F)Cl)nn(-c3ccccc3)c21` (some centres unmarked) [Compound I-145], “+ (MS Emax % adduct formation greater than or equal to 0.0 and less than or equal to 30.0)”. For the molecule `C=C(C(=O)OCC)c1nn(-c2ccccc2)c2c1[C@H](c1ccc(F)cc1)[C@@H](NC(=O)c1cccc(C(F)(F)F)c1)C(=O)N2CC` (racemic) [Compound I-195, rac-ethyl 2-((4R,5S)-7-ethyl-4-(4-fluorophenyl)-6-oxo-1-phenyl-5-(3-(trifluoromethyl)benzamido)-4,5,6,7-tetrahydro-1H-pyrazolo[3,4-b]pyridine-3-yl)acrylate], the “% Adduct Formation” value was “+ (MS Emax % adduct formation greater than or equal to 0.0 and less than or equal to 30.0)”. The value for `CCN1C(=O)[C@@H](NC(=O)c2cccc(C(F)(F)F)c2)[C@@H](c2ccc(F)cc2)c2c(NC(=O)COc3c(F)c(F)cc(F)c3F)nn(-c3ccccc3)c21` (racemic) [Compound I-176] was “+ (MS Emax % adduct formation greater than or equal to 0.0 and less than or equal to 30.0)”.

Regarding `CCN1C(=O)[C@@H](NC(=O)c2cccc(C(F)(F)F)c2)[C@@H](c2ccc(F)cc2)c2c(N3C=CC3=O)nn(-c3ccccc3)c21` (racemic) [Compound I-194, N-((4S,5S)-7-ethyl-4-(4-fluorophenyl)-6-oxo-3-(2-oxoazet-1(2H)-yl)-1-phenyl-4,5,6,7-tetrahydro-1H-pyrazolo[3,4-b]pyridine-5-yl)-3-(trifluoromethyl)benzamide], the “% Adduct Formation” value is “+ (MS Emax % adduct formation greater than or equal to 0.0 and less than or equal to 30.0)”. With `CCN1C(=O)[C@@H](NC(=O)c2cccc(C(F)(F)F)c2)[C@@H](c2ccc(F)cc2)c2c(CNC(=O)C(F)Cl)nn(-c3ccccc3)c21` (stereo in doubt) [Compound I-205] the entry was “+ (MS Emax % adduct formation greater than or equal to 0.0 and less than or equal to 30.0)”; with `CCN1C(=O)[C@@H](NC(=O)c2cccc(C(F)(F)F)c2)[C@@H](c2ccc(F)cc2)c2c(CN(C)C(=O)/C=C/C(F)(F)F)nn(-c3ccccc3)c21` (racemic) [Compound I-219], “+ (MS Emax % adduct formation greater than or equal to 0.0 and less than or equal to 30.0)”; with `CCN1C(=O)[C@@H](NC(=O)c2cccc(C(F)(F)F)c2)[C@@H](c2ccc(F)cc2)c2c(C3CO3)nn(-c3ccccc3)c21` (relative stereo) [Compound I-196, N-((4RS,5RS)-7-ethyl-4-(4-fluorophenyl)-3-((S*)-oxiran-2-yl)-6-oxo-1-phenyl-4,5,6,7-tetrahydro-1H-pyrazolo[3,4-b]pyridine-5-yl)-3-(trifluoromethyl)benzamide], “+ (MS Emax % adduct formation greater than or equal to 0.0 and less than or equal to 30.0)”. For `CCN1C(=O)[C@@H](NC(=O)c2cccc(C(F)(F)F)c2)[C@@H](c2ccc(F)cc2)c2c(CN3CC=CC3=O)nn(-c3ccccc3)c21` (racemic) [Compound I-193], the “% Adduct Formation” value was “+ (MS Emax % adduct formation greater than or equal to 0.0 and less than or equal to 30.0)”.

Regarding `CCN1C(=O)[C@@H](NC(=O)c2cccc(C(F)(F)F)c2)[C@@H](c2ccc(F)cc2)c2c(CNC(=O)C3=CCCC3)nn(-c3ccccc3)c21` (racemic) [Compound I-232], the “% Adduct Formation” value was “+ (MS Emax % adduct formation greater than or equal to 0.0 and less than or equal to 30.0)”.

`CCN1C(=O)[C@@H](NC(=O)c2cccc(C(F)(F)F)c2)[C@@H](c2ccc(F)cc2)c2c([C@@H](C)NC(=O)COc3c(F)c(F)cc(F)c3F)nn(-c3ccccc3)c21` (mixture of isomers) [Compound I-168]: the “% Adduct Formation” value was “+ (MS Emax % adduct formation greater than or equal to 0.0 and less than or equal to 30.0)”. For `CCN1C(=O)[C@@H](NC(=O)c2cccc(C(F)(F)F)c2)[C@@H](c2ccc(F)cc2)c2c(CNC(=O)CCl)nn(-c3ccccc3)c21` (racemic) [Compound I-229], the “% Adduct Formation” value was “+ (MS Emax % adduct formation greater than or equal to 0.0 and less than or equal to 30.0)”. For the molecule `C/C=C/C(=O)N(C)Cc1nn(-c2ccccc2)c2c1[C@H](c1ccc(F)cc1)[C@H](NC(=O)c1cccc(C(F)(F)F)c1)C(=O)N2CC` (racemic) [Compound I-234], the “% Adduct Formation” value is “+ (MS Emax % adduct formation greater than or equal to 0.0 and less than or equal to 30.0)”. Turning to `CCN1C(=O)[C@@H](NC(=O)c2cccc(C(F)(F)F)c2)[C@@H](c2ccc(F)cc2)c2c(CN(C)C(=O)C3=CCCC3)nn(-c3ccccc3)c21` (racemic) [Compound I-233], the “% Adduct Formation” value was “+ (MS Emax % adduct formation greater than or equal to 0.0 and less than or equal to 30.0)”.
